Counter-ions that a name gives are not always drawn. Like-named read-outs stand apart in the source and are kept apart here. *1 amine or outer side, *2 acyl side, *3 side chain or, on linkers, in order; H or OH if unused. Where a SMILES comes first, the peptide text is derived from it. Bridges are numbered along the chain shown (N, C = ends). Roman numbers before positions name the chains, in order. [ ]: non-standard residue; d: D form. Actinocin(9to1) = Cc1c2oc3c(C)ccc(C(=O)[*:1])c3nc-2c(C(=O)[*:2])c(N)c1=O; NMeV = CN[C@H](C(=O)O)C(C)C; Sar = CNCC(=O)O
Columns and labels:
Experiment in all cases: cells
[1] = tested on: endothelial tube formation in co-cultures of ECFCs and ADSCs treated with VEGF; assay type: cell-based, human
[2] = tested on: nuclear β-catenin in C2C12 cells; assay type: cell-based
INS-1E cells = assay type: cell-based, rat
NCI-H716 cells = assay type: cell-based, Human
DLD-1 = assay type: cell-based
SW480 = assay type: cell-based
HCT116 = assay type: cell-based
[3] = tested on: HCT116 cells treated with a GSK3β inhibitor; assay type: cell-based
HeLa cells = assay type: cell-based; details: read-out: CellCycle G2/M
[4] = read-out: Basal_Viability ATP DLD-1
[5] = read-out: Basal_Viability ATP SW480
[6] = read-out: Basal_Viability ATP HCT116
[7] = read-out: GSK3b inh pretreated_Viability ATP HCT116
[8] = Homo sapiens, IC50 / EC50, endothelial tube area, ADSC/ECFC co-culture, read-out: Anti-Angiogenesis
[9] = Mus musculus, C2C12, IC50 / EC50, C2C12 beta-catenin translocation, read-out: Wnt Pathway
[10] = Rattus norvegicus, IC50 / EC50, INS-1E, read-out: Insulin Secretion
[11] = Homo sapiens, IC50 / EC50, NCI-H716, read-out: GLP 1 Secretion
[12] = Homo sapiens, DLD-1, basal, read-out: Basal_Viability ATP DLD-1
[13] = Homo sapiens, SW480, basal, read-out: Basal_Viability ATP SW480
[14] = Homo sapiens, HCT-116, basal, read-out: Basal_Viability ATP HCT116
[15] = Homo sapiens, HCT-116, GSK3b inhibitor pretreated, read-out: GSK3b inh pretreated_Viability ATP HCT116
[16] = IC50 / EC50, C2C12 beta-catenin translocation, read-out: Wnt Pathway
[17] = IC50 / EC50, INS-1E, read-out: Insulin Secretion
[18] = IC50 / EC50, NCI-H716, read-out: GLP 1 Secretion
[19] = basal, read-out: Basal_Viability ATP DLD-1
[20] = basal, read-out: Basal_Viability ATP SW480
[21] = basal, read-out: Basal_Viability ATP HCT116
[22] = GSK3b inhibitor pretreated, read-out: GSK3b inh pretreated_Viability ATP HCT116

Compound: Nc1cc(C(F)(F)F)ccc1S
- IC50 ([1]; read-out: Anti-Angiogenesis): > 10 µM
- EC50 ([2]; S2 Table, module primary assay, 20 / 20.1 codes per legend, read-out: Wnt Pathway): > 10 µM
- EC50 (INS-1E cells; S2 Table, module primary assay, 20 / 20.1 codes per legend, read-out: Insulin Secretion): > 10 µM
- EC50 (NCI-H716 cells; read-out: GLP 1 Secretion): 1.16 µM
- IC50 (DLD-1; basal, DLD-1, read-out: Basal_Viability ATP DLD-1): > 20 µM
- IC50 (SW480; basal, SW480, read-out: Basal_Viability ATP SW480): > 20 µM
- IC50 (HCT116; basal, HCT116, read-out: Basal_Viability ATP HCT116): > 20 µM
- IC50 ([3]; HCT116 pretreated with GSK3b inhibitor, read-out: GSK3b inh pretreated_Viability ATP HCT116): > 20 µM

Compound: COc1ccc(OC(=O)N(CC(=O)O)Cc2ccc(OCCc3nc(-c4ccccc4)oc3C)cc2)cc1
- IC50 ([1]; read-out: Anti-Angiogenesis): > 10 µM
- EC50 ([2]; read-out: Wnt Pathway): > 10 µM
- EC50 (INS-1E cells; read-out: Insulin Secretion): > 10 µM
- EC50 (NCI-H716 cells; read-out: GLP 1 Secretion): 1.54 µM
- IC50 (DLD-1; [4]): 9.55 µM
- IC50 (SW480; [5]): 6.23 µM
- IC50 (HCT116; [6]): 7.65 µM
- IC50 [3, 7]: 6.13 µM

Compound: CCOc1ccc2nc3cc(N)ccc3c(N)c2c1 [Acrinol]
- IC50 ([1]; read-out: Anti-Angiogenesis): 4.94 µM
- EC50 ([2]; read-out: Wnt Pathway): > 10 µM
- EC50 (INS-1E cells; read-out: Insulin Secretion): > 10 µM
- EC50 (NCI-H716 cells; read-out: GLP 1 Secretion): > 10 µM
- EC50 (HeLa cells): > 10 µM
- IC50 (DLD-1; [4]): > 20 µM
- IC50 (SW480; [5]): 3.23 µM
- IC50 (HCT116; [6]): 15.7 µM
- IC50 [3, 7]: 5.92 µM

Compound: O=C1c2c(O)cccc2Cc2cccc(O)c21 [Anthralin]
- IC50 ([1]; Homo sapiens, read-out: Anti-Angiogenesis): 0.604 µM
- EC50 ([2]; Mus musculus, C2C12, S2 Table, module primary assay, 20 / 20.1 codes per legend, read-out: Wnt Pathway): > 10 µM
- EC50 (INS-1E cells; Rattus norvegicus, INS-1E, read-out: Insulin Secretion): > 10 µM
- EC50 (NCI-H716 cells; Homo sapiens, NCI-H716, read-out: GLP 1 Secretion): > 10 µM
- EC50 (HeLa cells; Homo sapiens, HeLa, S2 Table, HeLa, 20 = no response at highest concentration): > 10 µM
- IC50 (DLD-1; Homo sapiens, DLD-1, basal, DLD-1, read-out: Basal_Viability ATP DLD-1): 0.0667 µM
- IC50 (SW480; Homo sapiens, SW480, basal, SW480, read-out: Basal_Viability ATP SW480): 1.57 µM
- IC50 (HCT116; Homo sapiens, HCT-116, basal, HCT116, read-out: Basal_Viability ATP HCT116): 2.2 µM
- IC50 ([3]; Homo sapiens, HCT-116, HCT116 pretreated with GSK3b inhibitor, read-out: GSK3b inh pretreated_Viability ATP HCT116): 16.3 µM

Compound: CC1=C(C(=O)OC(C)C)C(c2cccc([N+](=O)[O-])c2)C(C(=O)OC2CN(C(c3ccccc3)c3ccccc3)C2)=C(N)N1 (centres unmarked) [Azelnidipine]
- IC50 [1, 8]: 3.58 µM
- EC50 [2, 9]: > 10 µM
- EC50 (INS-1E cells; [10]): > 10 µM
- EC50 (NCI-H716 cells; [11]): 1.23 µM
- IC50 (DLD-1; [12]): 5.1 µM
- IC50 (SW480; [13]): 3.84 µM
- IC50 (HCT116; [14]): 3.69 µM
- IC50 [3, 15]: 5.5 µM

Compound: NC(=O)C1(N2CCCCC2)CCN(CCCN2c3ccccc3CCc3ccc(Cl)cc32)CC1 [Clocapramine]
- IC50 [1, 8]: 3.4 µM
- EC50 [2, 9]: > 20 µM
- EC50 (INS-1E cells; [10]): 10.1 µM
- EC50 (NCI-H716 cells; [11]): 18.3 µM
- IC50 (DLD-1; [12]): 5.35 µM
- IC50 (SW480; [13]): 3.69 µM
- IC50 (HCT116; [14]): 3.41 µM
- IC50 [3, 15]: 3.64 µM

Compound: Cc1c2oc3c(C)ccc(C(=O)N[C@@H]4C(=O)N[C@H](C(C)C)C(=O)N5CCC[C@H]5C(=O)N(C)CC(=O)N(C)[C@@H](C(C)C)C(=O)O[C@@H]4C)c3nc-2c(C(=O)N[C@@H]2C(=O)N[C@H](C(C)C)C(=O)N3CCC[C@H]3C(=O)N(C)CC(=O)N(C)[C@@H](C(C)C)C(=O)O[C@@H]2C)c(N)c1=O [Dactinomycin] (I: T[dV]P[Sar][NMeV] / II: T[dV]P[Sar][NMeV]; ester I:1-I:C, II:1-II:C; linker I:N-II:N via Actinocin(9to1))
- IC50 [1, 8]: 0.001 µM
- EC50 ([2]; Mus musculus, IC50 / EC50, C2C12 beta-catenin translocation, read-out: Wnt Pathway): 0.0015 µM
- EC50 (INS-1E cells; [10]): > 10 µM
- EC50 (NCI-H716 cells; [11]): > 10 µM
- IC50 (DLD-1; Homo sapiens, DLD-1, read-out: Basal_Viability ATP DLD-1): 0.0667 µM
- IC50 (SW480; Homo sapiens, SW480, read-out: Basal_Viability ATP SW480): 0.0667 µM
- IC50 (HCT116; Homo sapiens, HCT-116, read-out: Basal_Viability ATP HCT116): 12.6 µM
- IC50 [3, 15]: > 20 µM

Compound: O=C(O)c1ccccc1-c1c2cc(I)c(=O)c(I)c-2oc2c(I)c(O)c(I)cc12 [Erythrosin b]
- IC50 ([1]; IC50 / EC50, endothelial tube area, ADSC/ECFC co-culture, read-out: Anti-Angiogenesis): > 10 µM
- EC50 [2, 16]: > 10 µM
- EC50 (INS-1E cells; [17]): > 10 µM
- EC50 (NCI-H716 cells; [18]): 2.93 µM
- IC50 (DLD-1; [19]): > 20 µM
- IC50 (SW480; [20]): > 20 µM
- IC50 (HCT116; [21]): > 20 µM
- IC50 [3, 22]: > 20 µM

Compound: Cc1cc(CC(C)CC(C)(C)C)n(O)c(=O)c1 (centres unmarked) [Piroctonum]
- EC50 [2, 16]: 0.591 µM
- EC50 (INS-1E cells; [17]): > 10 µM
- EC50 (NCI-H716 cells; [18]): > 10 µM
- EC50 (HeLa cells; IC50 / EC50, HeLa): > 10 µM
- IC50 (DLD-1; [19]): 1.08 µM
- IC50 (SW480; [20]): 0.581 µM
- IC50 (HCT116; [21]): 0.772 µM
- IC50 [3, 22]: 0.506 µM

Compound: Oc1ccc2[nH]cc(CCCCN3CC=C(c4ccccc4)CC3)c2c1 [Roxindole hydrochloride]
- IC50 ([1]; read-out: Anti-Angiogenesis): 4.04 µM
- EC50 ([2]; read-out: Wnt Pathway): > 10 µM
- EC50 (INS-1E cells; read-out: Insulin Secretion): > 10 µM
- EC50 (NCI-H716 cells; read-out: GLP 1 Secretion): > 10 µM
- IC50 (DLD-1; [4]): 4.54 µM
- IC50 (SW480; [5]): 2.47 µM
- IC50 (HCT116; [6]): 2.5 µM
- IC50 [3, 7]: 3.32 µM

Compound: O=C1Nc2ccc(Cl)cc2[C@@](C#CC2CC2)(C(F)(F)F)O1 [efavirenz, reference compound]
- IC50 [1, 8]: > 10 µM
- EC50 [2, 9]: > 10 µM
- EC50 (INS-1E cells; [10]): 3.87 µM
- activity in the GLP-1 secretion assay (in words) (NCI-H716 cells): exhibited activity in the GLP-1 secretion assay
- EC50 (NCI-H716 cells; [11]): 2.48 µM
- IC50 (DLD-1; [12]): > 20 µM
- IC50 (SW480; [13]): 4.61 µM
- IC50 (HCT116; [14]): 6.17 µM
- IC50 [3, 15]: 7.3 µM

Compound: CCC1=C(C)CN(C(=O)NCCc2ccc(S(=O)(=O)NC(=O)N[C@H]3CC[C@H](C)CC3)cc2)C1=O [glimepiride, reference compound]
- IC50 ([1]; Homo sapiens, Table 2, primary assay tube area, 20 = no response in concentration-response, 20.1 = inactive in single concentration testing, read-out: Anti-Angio IC50): > 10 µM
- EC50 ([2]; Mus musculus, C2C12, Table 2, C2C12, […], 20 / 20.1 coded, read-out: Wnt pot. EC50): > 10 µM
- EC50 (INS-1E cells; Rattus norvegicus, INS-1E, read-out: Ins. sec. EC50): 0.004 µM
- EC50 (INS-1E cells; [10]): 0.00406 µM
- EC50 (INS-1E cells; Rattus norvegicus, INS-1E, 5 mM glucose, read-out: insulin secretion EC50): 0.0041 µM
- EC50 (NCI-H716 cells; Homo sapiens, NCI-H716, read-out: GLP1 sec. EC50): > 10 µM
- IC50 (DLD-1; Homo sapiens, DLD-1, 72 h, Table 2, 72 h, Cell TiterGlo, non-adherent, 20 coded, read-out: DLD-1 viab. IC50): > 20 µM
- IC50 (SW480; Homo sapiens, SW480, 72 h, Table 2, 72 h, Cell TiterGlo, non-adherent, 20 coded, read-out: SW480 viab. IC50): > 20 µM
- IC50 (HCT116; Homo sapiens, HCT-116, 72 h, read-out: HCT-116 viab. IC50, Table 2, basal, 72 h, Cell TiterGlo, non-adherent, 20 coded): > 20 µM
- IC50 ([3]; Homo sapiens, HCT-116, read-out: HCT-116 (GSK3β) viab. IC50, Table 2, GSK3β inhibitor LY2090314 20 nM, 72 h, Cell TiterGlo, 20 coded): > 20 µM

Compound: C/C(=C(/CCOC(=O)C(C)C)SS/C(CCOC(=O)C(C)C)=C(\C)N(C=O)Cc1cnc(C)nc1N)N(C=O)Cc1cnc(C)nc1N [sulbutiamine]
- EC50 [2, 9]: > 10 µM
- EC50 (INS-1E cells; [10]): > 20 µM
- EC50 (NCI-H716 cells; [11]): 2.39 µM
- IC50 (DLD-1; [12]): > 20 µM
- IC50 (SW480; [13]): > 20 µM
- IC50 (HCT116; [14]): > 20 µM
- IC50 [3, 15]: > 20 µM

Compound: Janssen brand of muromonab-cd3
- EC50 [2, 16]: > 10 µM
- EC50 (INS-1E cells; [17]): > 10 µM
- EC50 (NCI-H716 cells; [18]): 0.79 µM
- EC50 (HeLa cells; IC50 / EC50, HeLa): > 10 µM
- IC50 (DLD-1; [19]): 2.81 µM
- IC50 (SW480; [20]): 3.22 µM
- IC50 (HCT116; [21]): 2.64 µM
- IC50 [3, 22]: 3.66 µM

From article PMC4503722, “Novel Phenotypic Outcomes Identified for a Public Collection of Approved Drugs from a Publicly Accessible Panel of Assays” (PLoS ONE, 2015)
